The record followed here is patent publication US6340670B1, “Acetal benzylmaltosides as inhibitors of smooth muscle cell proliferation” (American Home Products Corporation, priority 1998, dated 2002).

The subject of this assay is Porcine Smooth Muscle Cell. Description: Effects of Compounds on Cell Proliferation Using 3H Thymidine Incorporation. The assay is classed as cell-based. The conditions noted are these: for Porcine Smooth Muscle Cell Antiproliferation, percent inhibition: @ 50 μM, control (100%) = maximally stimulated cells; for IC50: serum/growth factor stimulated cells, 24-36 h incubation, read-out: Porcine Smooth Muscle Cell Antiproliferation IC50. The essentials:
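Early-passage (3-7) sub-confluent smooth muscle cells, serum-starved 24-48 h, were stimulated with growth factor or serum and treated with compound (1 to 100 μM, from 50% ethanol stock) for 24-36 h at 37° C. Proliferation by ^3H-thymidine incorporation into TCA-insoluble material, triplicate, relative to maximally stimulated cells (100%); given as IC50 or % inhibition.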

With `CC(=O)Nc1cc(COC2OC(CO)C(OC3OC4COC(CCC#N)OC4C(O)C3O)C(O)C2O)ccc1Cl` [Example 18, N-{2-Chloro-5[-(4′,6′-O-((1R)-3-cyano-propylidene)-β-D-maltosyloxy)-methyl]-phenyl}-acetamide], the “Porcine Smooth Muscle Cell Antiproliferation, percent inhibition” value was 43% @ 50.

As for `CC(=O)Nc1cc(CO[C@@H]2O[C@H](CO)[C@@H](O[C@H]3O[C@@H]4COC(c5ccccc5)O[C@H]4[C@H](O)[C@H]3O)[C@H](O)[C@H]2O)ccc1Cl` (stereo partly drawn) [Example 24, N-{5-[(4′,6′-O-Benzylidene-β-D-maltosyloxy)-methyl]-2-chloro-phenyl}-acetamide], the IC50 was 6600 nM.

On to “N-{5-[(6-O-(3-Benzyl-1-oxo-propyl)-4′,6′-O-benzylidene-β-D-maltosyl)-oxy-methyl]-2-chloro-phenyl}-carbamic acid methyl ester [Example 82]”, for which the IC50 was determined as 352 nM.

Take `COC(=O)CCCC(=O)OCC1OC(OCc2ccc(Cl)c(NC(C)=O)c2)C(O)C(O)C1OC1OC2COC(c3ccccc3)OC2C(O)C1O` [Example 28, (R)-N-[2-Chloro-5-[[[6-O-(5-methoxy-1,5-dioxopentyl)-4-O-[4,6-O-(phenylmethylene)-α-D-glucopyranoysl]-β-D-gluconyranosyl]oxy]methyl]-phenyl]acetamide]: the IC50 was 400 nM.

On to `CC(=O)Nc1cc(COC2OC(CO)C(OC3OC4COC(c5ccncc5)OC4C(O)C3O)C(O)C2O)ccc1Cl` [Example 22, N-(2-Chloro-5-{[4′,6′-O-(4-pyridinemethylidene)-β-D-maltosyl]-oxy-methyl}-phenyl)-acetamide], for which the IC50 turned out to be 5530 nM.

For the compound `O=C(Nc1cc(COC2OC(CO)C(OC3OC4COC(c5ccccc5)OC4C(O)C3O)C(O)C2O)ccc1Cl)c1cccnc1` [Example 61, (R)-N-[2-Chloro-5-[[[4-O-[4′,6′-O-(phenylmethylene)-α-D-glucopyranosyl]-β-D-glucopyranosyl]oxy]methyl]phenyl]-3-pyridinecarboxamide], the IC50 worked out at 13700 nM.

`OCC1OC(OCc2ccc(Cl)cc2)C(O)C(O)C1OC1OC2COC(c3ccccc3)OC2C(O)C1O` [Example 68, (4-Chloro)-benzyl-4′,6′-O-benzylidene-β-D-maltoside]: the IC50 is 25300 nM.

For the compound `CC(=O)N(C)c1cc(CO[C@@H]2O[C@H](CO)[C@@H](O[C@H]3O[C@@H]4COC(c5ccccc5)O[C@H]4[C@H](O)[C@H]3O)[C@H](O)[C@H]2O)ccc1Cl` (stereo partly drawn) [Example 78, N-{5-[(4′,6′-O-Benzylidene-β-D-maltosyl)-oxymethyl]-2-chloro-phenyl}-N-methyl-acetamide], the “Porcine Smooth Muscle Cell Antiproliferation, percent inhibition” value is listed as 8% @ 50.

Turning to `O=C(OCC1OC(SCc2ccc(Cl)c([N+](=O)[O-])c2)C(O)C(O)C1OC1OC2COC(c3ccccc3)OC2C(O)C1O)c1ccccc1` [Example 87, (4-Chloro-3-nitro-benzyl) 6-O-benzoyl-4′,6′-O-benzoyl-4′,6′-O-benzylidene-1-thio-β-D-maltoside], the IC50 is 31 nM.

Turning to `CC(=O)Nc1cc(COC2OC(CO)C(OC3OC4COC(c5ccc(Cl)cc5)OC4C(O)C3O)C(O)C2O)ccc1Cl` [Example 12, N-{2-Chloro-5-[(4′,6′-O-(4-chloro)-benzylidene-β-D-maltosyl)-oxy-methyl]-phenyl}-acetamide], the IC50 stood at 29400 nM.

Turning to `CC(=O)Nc1cc(CO[C@@H]2O[C@H](COc3ccccc3)[C@@H](O[C@H]3O[C@@H]4COC(c5ccccc5)O[C@H]4[C@H](O)[C@H]3O)[C@H](O)[C@H]2O)ccc1Cl` (stereo partly drawn) [Example 60, N-{5-[(4′,6′-O-Benzylidene-6-O-phenyl-β-D-maltosyl)-oxy-methyl]-2-chloro-phenyl}-acetamide], the IC50 is 38 nM.

Take `Nc1cc(COC2OC(COC(=O)c3ccccc3)C(OC3OC4COC(c5ccccc5)OC4C(O)C3O)C(O)C2O)ccc1Cl` [Example 67, 5-(6-O-Benzoyl-4′,6′-O-benzylidene-β-D-maltosyl)-oxy-methyl-2-chloro-phenylamine]: the IC50 worked out at 1290 nM.

As to `CC(=O)Nc1cc(COC2OC(COC(=O)Cc3ccccc3)C(OC3OC4COC(c5ccccc5)OC4C(O)C3O)C(O)C2O)ccc1Cl` [Example 46, (R)-N-[-2-Chloro-5-[[[6-O-(phenylacetyl)-4-O-[4,6-O-(phenylmethylene)-α-D-glucopyranosyl]-β-D-glucopyranosyl]oxy]methyl]phenyl]acetamide], the IC50 was determined as 32 nM.

`CC(=O)Nc1cc(COC2OC(COC(=O)c3cccc(C(F)(F)F)c3)C(OC3OC4COC(c5ccccc5)OC4C(O)C3O)C(O)C2O)ccc1Cl` [Example 42, (R)-N-[2-Chloro-5-[[[6-O-(3-trifluoromethylbenzoyl)-4-O-[4,6O-(phenyl-methylene)-α-D-glucopyranosyl]-β-D-glucopyranosyl]oxy]methyl]phenyl]acetamide]: the IC50 was 27 nM.

As for `CC(=O)Nc1cc(COC2OC(CO)C(OC3OC4COC(c5ccccc5)OC4C(O)C3O)C(O)C2O)ccc1C` [Example 57, N-{5-[(4′,6′-O-Benzylidene-β-D-maltosyl)-oxy-methyl]-2-methyl-phenyl}-acetamide], the IC50 worked out at 8900 nM.

Turning to `CCOCCC1OCC2OC(OC3C(COC(=O)c4ccccc4)OC(OCc4ccc(Cl)c(NC(C)=O)c4)C(O)C3O)C(O)C(O)C2O1` [Example 21, N-{5-{[6-O-Benzoyl-4′,6′-O-((1R)-3-ethoxypropylidene)-β-D-maltosyloxy]-methyl}-2-chloro-phenyl}-acetamide], the IC50 was 62 nM.

For the compound `CC(=O)Nc1cc(CO[C@@H]2O[C@H](COC(=O)c3ccccc3)[C@@H](O[C@H]3O[C@@H]4COC(c5ccccc5)O[C@H]4[C@H](O)[C@H]3O)[C@H](O)[C@H]2O)ccc1Cl` (stereo partly drawn) [Example 26, N-{5-[(6-O-Benzoyl-4′,6′-O-benzylidene-β-D-maltosyl-oxy)-methyl]-2-chloro-phenyl}-acetamide], the IC50 lay in the range of 10 to 30 nM.

Turning to `CC(=O)Nc1cc(COC2OC(COCc3ccccc3)C(OC3OC4COC(c5ccccc5)OC4C(O)C3O)C(O)C2O)ccc1Cl` [Example 8, N-{5-[(6-O-Benzyl-4′,6′-O-benzylidene-β-D-maltosyl)-oxy-methyl]-2-chloro-phenyl}-acetamide], the IC50 came to 1 nM.

`O=C(Nc1cc(COC2OC(COC(=O)c3ccc(I)cc3)C(OC3OC4COC(c5ccccc5)OC4C(O)C3O)C(O)C2O)ccc1Cl)c1ccc(C(=O)c2ccccc2)cc1` [Example 74, 4-Benzoyl-N-{5-[(4′,6′-O-benzylidene-6-(4-iodo-benzoyl)-oxy-β-D-maltosyl)-oxy-methyl]-2-chloro-phenyl}-benzoic acid amide]: the IC50 worked out at 1220 nM.

Take `O=C(OCC1OC(OCc2ccc(Cl)c(NC(=O)c3ccco3)c2)C(O)C(O)C1OC1OC2COC(c3ccccc3)OC2C(O)C1O)c1ccccc1` [Example 64, Furan-2-carboxylic acid {5-[(6-O-benzoyl-4′,6′-O-benzylidene-β-D-maltosyl)-oxy-methyl]-2-chloro-phenyl}-amide]: the IC50 amounted to 50 nM.
